Measured values reported in ChEMBL document CHEMBL5352502, “Design, synthesis and biological evaluation of novel lipophilic 2, 5-disubstituted tetrazole analogues of muramyl dipeptide as NOD2 agonists” (Bioorg Med Chem, 2023).
Blank lines part the entries; values can stand above or below the molecule they belong to. The source made the active and inactive calls. The rule behind the calls is not given here.

Columns and labels:
Peritoneal macrophage = assay: Cytotoxicity against BALB/c mouse peritoneal macrophage assessed as cell proliferation at 20 ug for 48 hrs by MTT assay; format: toxicity, cell-based; conditions: dose 20 µg
Serum [1] = assay: Induction of antibody titer production in immunized BALB/c mouse serum assessed as fold increase in IgG1 antibody titer at 20 ug for 28 days; format: functional; conditions: dose 20 µg; time 28 day
[2] = Induction of mouse spleen dendritic cells activation at 20 ug for 24 hrs relative to control; format: functional, Dendritic cell; conditions: dose 20 µg
Serum [3] = assay: Induction of antibody titer production in immunized BALB/c mouse serum assessed as increase in IgG1 antibody titer at 20 ug for 28 days; format: functional, cell-free; conditions: dose 20.0 µg, time 28.0 day
Splenocyte [4] = assay: Cytotoxicity against mouse splenocyte incubated at 10 to 30 ug for 3 hrs in by MTT assay; format: toxicity, cell-based; conditions: dose 10-30 µg
[5] = target: Nucleotide-binding oligomerization domain-containing protein 2 (Homo sapiens) (UniProt Q9HC29); assay: Binding affinity to NOD2 in HEK-Blue hNOD2 cells by measuring secreted alkaline phosphatase into culture supernatant at 20 ug measured after 24 hrs by HEK-Blue detection method; format: cell-based; conditions: filed as agonist, dose 20.0 µg
Serum [6] = assay: Induction of antibody titer production in immunized BALB/c mouse serum assessed as increase in IgG2a antibody titer at 20 ug for 28 days; format: functional, cell-free; conditions: dose 20.0 µg, time 28.0 day
[7] = Induction of BALB/c mouse peritoneal macrophage activation by measuring TNF-alpha level at 20 ug for 48 hrs by ELISA analysis; format: functional; conditions: dose 20 µg
[8] = Cytotoxicity against BALB/c mouse peritoneal macrophage assessed as cell proliferation at 20 ug for 48 hrs by MTT assay relative to control; format: toxicity, cell-based; conditions: peritoneal macrophages, at 20 µg, read-out: Activity
Splenocyte [9] = assay: Upregulation of IL-1beta in Dengue virus recombinant antigen restimulated mouse splenocyte incubated at 30 ug for 48 hrs by ELISA anlaysis; format: functional, cell-based; conditions: dose 10-30 µg
Splenocyte [10] = assay: Upregulation of IL-1beta in Dengue virus recombinant antigen restimulated mouse splenocyte incubated at 20 ug for 48 hrs by ELISA anlaysis; format: functional, cell-based; conditions: dose 20.0 µg
CD4+ve Th [11] = assay: Stimulation of CD4+ T helper cells in mouse spleen at 20 ug for 15 mins by auto- fluorescence based analysis; format: functional, cell-based; conditions: dose 20.0 µg
Serum [12] = assay: Induction of antibody titer production in immunized BALB/c mouse serum assessed as increase in IgG1 antibody titer at 10 to 30 ug for 28 days; format: functional, cell-free; conditions: dose 10-30 µg, time 28.0 day
Serum [13] = assay: Induction of antibody titer production in immunized BALB/c mouse serum assessed as increase in IgG2a antibody titer at 10 to 30 ug for 28 days; format: functional, cell-free; conditions: dose 10-30 µg, time 28.0 day
CD8-positive T cell [14] = assay: Stimulation of […] in mouse spleen at 20 ug for 15 mins by auto- fluorescence based analysis; format: functional, tissue-based; conditions: dose 20.0 µg
Serum [15] = assay: Induction of antibody titer production in immunized BALB/c mouse serum assessed as fold increase in IgG1 antibody titer at 30 ug for 28 days; format: functional; conditions: dose 30 µg; time 28 day
CD8-positive T cell [16] = assay: Stimulation of […] in mouse spleen for 15 mins by auto- fluorescence based analysis; format: functional, tissue-based; conditions: dose 10-30 µg
CD4+ve Th [17] = assay: Stimulation of CD4+ T helper cells in mouse spleen for 15 mins by auto- fluorescence based analysis; format: functional, cell-based

Chain of Nucleotide-binding oligomerization domain-containing protein 2 (Homo sapiens) (Q9HC29 whole entry, the tested form may be a part): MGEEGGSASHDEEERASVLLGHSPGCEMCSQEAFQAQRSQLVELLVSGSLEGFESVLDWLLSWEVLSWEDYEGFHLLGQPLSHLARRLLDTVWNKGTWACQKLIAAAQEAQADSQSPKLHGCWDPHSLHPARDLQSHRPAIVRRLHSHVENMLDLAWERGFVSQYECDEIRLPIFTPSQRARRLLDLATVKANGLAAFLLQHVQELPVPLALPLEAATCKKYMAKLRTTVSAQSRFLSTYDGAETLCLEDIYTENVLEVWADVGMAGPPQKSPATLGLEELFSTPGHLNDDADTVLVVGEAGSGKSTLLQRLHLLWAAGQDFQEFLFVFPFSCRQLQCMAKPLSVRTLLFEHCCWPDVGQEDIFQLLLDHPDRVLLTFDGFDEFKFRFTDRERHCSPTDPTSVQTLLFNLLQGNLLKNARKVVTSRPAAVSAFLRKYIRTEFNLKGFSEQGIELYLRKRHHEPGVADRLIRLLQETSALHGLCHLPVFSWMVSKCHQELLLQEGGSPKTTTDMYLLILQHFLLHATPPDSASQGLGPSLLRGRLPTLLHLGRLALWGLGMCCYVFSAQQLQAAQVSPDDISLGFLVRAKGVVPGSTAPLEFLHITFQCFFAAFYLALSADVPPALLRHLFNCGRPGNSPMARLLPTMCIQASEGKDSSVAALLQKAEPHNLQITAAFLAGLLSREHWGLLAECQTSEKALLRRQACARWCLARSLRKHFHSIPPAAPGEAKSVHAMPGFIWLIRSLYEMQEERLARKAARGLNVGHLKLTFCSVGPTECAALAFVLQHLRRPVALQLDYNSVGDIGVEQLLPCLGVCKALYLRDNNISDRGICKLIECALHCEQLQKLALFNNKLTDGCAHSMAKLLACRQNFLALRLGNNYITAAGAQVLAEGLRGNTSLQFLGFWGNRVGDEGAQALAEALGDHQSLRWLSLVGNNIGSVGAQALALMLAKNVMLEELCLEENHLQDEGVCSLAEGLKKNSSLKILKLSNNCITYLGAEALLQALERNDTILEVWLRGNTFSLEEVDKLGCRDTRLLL

Activity [5]: Active
Structure (SMILES): CC(=O)N[C@@H]1[C@@H](O[C@H](C)C(=O)N[C@@H](C)C(=O)N[C@H](CCC(=O)O)c2nn[nH]n2)[C@H](O)[C@@H](CO)O[C@@H]1O
Activity (Peritoneal macrophage): Non-Toxic
Activity [2]: 13%
Activity [7]: 250 pg/mL

Activity [5]: Active
Structure (SMILES): CC(=O)N[C@@H]1[C@@H](O[C@H](C)C(=O)N[C@@H](C)C(=O)N[C@H](CCC(=O)O)c2nnn(C3CCCCCC3)n2)[C@H](O)[C@@H](CO)O[C@@H]1O
Activity (Peritoneal macrophage): Non-Toxic
Activity [2]: 13%
Activity [7]: 250 pg/mL

Activity [5]: Active
Structure (SMILES): CCCCn1nnc([C@@H](CCC(=O)O)NC(=O)[C@H](C)NC(=O)[C@@H](C)O[C@H]2[C@H](O)[C@@H](CO)O[C@H](O)[C@@H]2NC(C)=O)n1
Activity (Peritoneal macrophage): Non-Toxic
fold change (FC) (Serum [1]): 8
fold change (FC) (Serum [15]): 11
Activity [2]: 13%
Activity (Serum [12]): Active
Activity (CD8-positive T cell [16]): Dose-Dependent Effect
Activity (CD4+ve Th [17]): Dose-Dependent Effect
Activity (Serum [13]): Active
Activity (Splenocyte [4]): Non-Toxic
Activity [7]: <=100 pg/ml

Further lines, the molecule ahead of its results:

Structure (SMILES): CC(=O)N[C@H]1[C@@H](OCc2ccccc2)O[C@@H]2CO[C@@H](c3ccccc3)O[C@H]2[C@@H]1O[C@H](C)C(=O)N[C@@H](C)C(=O)N[C@H](CCC(=O)OCc1ccccc1)C(N)=O
Activity (Peritoneal macrophage): Non-Toxic
fold change (FC) (Serum [1]): 7
Activity [2]: 13%
Activity (Serum [3]): Active
Activity (Splenocyte [4]): Toxic
Activity [5]: Active
Activity (Serum [6]): Active

Structure (SMILES): CCCCCCCCCCCCn1nnc([C@@H](CCC(=O)O)NC(=O)[C@H](C)NC(=O)[C@@H](C)O[C@H]2[C@H](O)[C@@H](CO)O[C@H](O)[C@@H]2NC(C)=O)n1
Activity (Peritoneal macrophage): Non-Toxic
Activity [2]: 13%
viability at 48 h, 20 ug [8]: < 140%
Activity [5]: Active
Activity [7]: 250 pg/mL

Structure (SMILES): CCCCCCCCCCCCCCCCCCn1nnc([C@@H](CCC(=O)O)NC(=O)[C@H](C)NC(=O)[C@@H](C)O[C@H]2[C@H](O)[C@@H](CO)O[C@H](O)[C@@H]2NC(C)=O)n1
Activity (Peritoneal macrophage): Non-Toxic
Activity [2]: 13%
Activity [5]: Active
Activity [7]: <=100 pg/ml

Structure (SMILES): CCCCCCCCn1nnc([C@@H](CCC(=O)O)NC(=O)[C@H](C)NC(=O)[C@@H](C)O[C@H]2[C@H](O)[C@@H](CO)O[C@H](O)[C@@H]2NC(C)=O)n1
Activity (Splenocyte [9]): Active
Activity (Peritoneal macrophage): Non-Toxic
Activity (Splenocyte [10]): Active
fold change (FC) (Serum [1]): 11
Activity [2]: 13%
Activity (CD4+ve Th [11]): inactive
Activity (Serum [12]): Active
Activity (Serum [13]): Active
Activity (Splenocyte [4]): Non-Toxic
Activity [5]: Active
Activity [7]: <=100 pg/ml
Activity (CD8-positive T cell [14]): inactive
